Test results as given in PubChem BioAssay AID328 (DTP/NCI, 2004).
Values joined by “and” are separate entries in the source; they are usually repeats but may differ in a detail not shown here. Equal values may be shown once. Toxic doses and inconclusive results are not listed. The calls were made as follows: active = survival T/C of 150% or more; inactive = T/C below 125% in these data. Residues, ends and D or L forms follow the SMILES beside them. *: point of attachment. Trt = c1ccc(C(c2ccccc2)(c2ccccc2)*)cc1

Tested on: BDF1 mice, P388 leukemia ip, median survival T/C
Test: NCI In Vivo Anticancer Drug Screen. Data for tumor model P388 Leukemia (intraperitoneal) in B6D2F1 (BDF1) mice
Details: endpoint: median survival time, higher = longer survival
Outline: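 Vehicle-dosed animals serve as the reference; survival of compound-dosed, tumour-implanted mice is divided by it.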

[1] = dose: 100.0 mg/kg/injection, schedule: Q01DX009 (ip), vehicle: other
[2] = dose: 50.0 mg/kg/injection, schedule: Q01DX009 (ip), vehicle: saline with Tween-80
[3] = dose: 50.0 mg/kg/injection, schedule: Q04DX003 (ip), vehicle: saline with Tween-80
[4] = dose: 100.0 mg/kg/injection, schedule: Q01DX009 (ip), vehicle: saline with Tween-80
[5] = dose: 100.0 mg/kg/injection, schedule: Q04DX003 (ip), vehicle: saline with Tween-80
[6] = dose: 200.0 mg/kg/injection, schedule: Q04DX003 (ip), vehicle: saline with Tween-80
[7] = dose: 400.0 mg/kg/injection, schedule: Q04DX003 (ip), vehicle: saline with Tween-80
[8] = dose: 200.0 mg/kg/injection, schedule: Q01DX009 (ip), vehicle: saline with Tween-80
[9] = dose: 400.0 mg/kg/injection, schedule: Q01DX009 (ip), vehicle: saline with Tween-80
[10] = dose: 25.0 mg/kg/injection, schedule: Q04DX003 (ip), vehicle: saline with Tween-80
[11] = dose: 100.0 mg/kg/injection, schedule: Q01DX009 (ip), vehicle: Klucel (hydroxypropylcellulose) (HPC)
[12] = dose: 100.0 mg/kg/injection, schedule: Q04DX003 (ip), vehicle: Klucel (hydroxypropylcellulose) (HPC)
[13] = dose: 50.0 mg/kg/injection, schedule: Q01DX005 (ip), vehicle: saline with Tween-80
[14] = dose: 100.0 mg/kg/injection, schedule: Q01DX005 (ip), vehicle: saline with Tween-80
[15] = dose: 200.0 mg/kg/injection, schedule: Q01DX005 (ip), vehicle: saline with Tween-80
[16] = dose: 200.0 mg/kg/injection, schedule: Q04DX003 (ip), vehicle: Klucel (hydroxypropylcellulose) (HPC)
[17] = dose: 400.0 mg/kg/injection, schedule: Q04DX003 (ip), vehicle: Klucel (hydroxypropylcellulose) (HPC)

Measured: T/C

Cc1ccc(S(=O)(=O)N/N=C2/C(=N/NS(=O)(=O)c3ccc(C)cc3)C3CCC2C3)cc1
inactive: dose: 50.0 mg/kg/injection, schedule: Q01DX009 (ip), vehicle: other 105 % of control | [1] 96 % of control | dose: 200.0 mg/kg/injection, schedule: Q01DX009 (ip), vehicle: other 95 % of control

CC#CCOCC1CN(C)C(=O)O1 (stereo not given)
inactive: dose: 25.0 mg/kg/injection, schedule: Q01DX009 (ip), vehicle: saline 95 % of control | dose: 50.0 mg/kg/injection, schedule: Q01DX009 (ip), vehicle: saline 100 % of control | dose: 50.0 mg/kg/injection, schedule: Q04DX003 (ip), vehicle: saline 100 % of control | dose: 100.0 mg/kg/injection, schedule: Q01DX009 (ip), vehicle: saline 109 % of control | dose: 200.0 mg/kg/injection, schedule: Q01DX009 (ip), vehicle: saline 95 % of control | dose: 200.0 mg/kg/injection, schedule: Q04DX003 (ip), vehicle: saline 91 % of control | dose: 400.0 mg/kg/injection, schedule: Q04DX003 (ip), vehicle: saline 87 % of control

CCNC(C)(C)C(=O)c1ccc(Cl)s1
inactive: dose: 25.0 mg/kg/injection, schedule: Q01DX009 (ip), vehicle: saline with Tween-80 98 % of control | [2] 91 % of control | [3] 99 % of control | [4] 96 % of control | [5] 86 % of control and 109 % of control | [6] 89 % of control and 104 % of control | [7] 95 % of control and 96 % of control

COC(=O)C(NC(=O)C(N)CSC(c1ccccc1)(c1ccccc1)c1ccccc1)C(C)C (stereo not given) (H-Cys(Trt)-Val-OMe; configuration not given here)
inactive: dose: 50.0 mg/kg/injection, schedule: Q01DX009 (sc), vehicle: olive oil, sesame oil, peanut oil 117 % of control | dose: 50.0 mg/kg/injection, schedule: Q04DX003 (sc), vehicle: olive oil, sesame oil, peanut oil 90 % of control | dose: 100.0 mg/kg/injection, schedule: Q01DX009 (sc), vehicle: olive oil, sesame oil, peanut oil 104 % of control | dose: 100.0 mg/kg/injection, schedule: Q04DX003 (sc), vehicle: olive oil, sesame oil, peanut oil 90 % of control | dose: 200.0 mg/kg/injection, schedule: Q01DX009 (sc), vehicle: olive oil, sesame oil, peanut oil 104 % of control | dose: 200.0 mg/kg/injection, schedule: Q04DX003 (sc), vehicle: olive oil, sesame oil, peanut oil 100 % of control

COc1cc([N+](=O)[O-])cc(OC)c1OC
inactive: [2] 100 % of control | [4] 94 % of control | [8] 102 % of control | [9] 91 % of control

CCN(CC)S(=O)(=O)c1cccc(C(O)CC(O)(C(F)(F)F)C(F)(F)F)c1 (stereo not given)
inactive: dose: 100.0 mg/kg/injection, schedule: Q04DX003 (ip), vehicle: other 95 % of control | dose: 200.0 mg/kg/injection, schedule: Q04DX003 (ip), vehicle: other 86 % of control | dose: 400.0 mg/kg/injection, schedule: Q04DX003 (ip), vehicle: other 90 % of control

CCOC(CN=Cc1ccc(Cl)c(Cl)c1)OCC
inactive: dose: 100.0 mg/kg/injection, schedule: Q01DX001 (ip), vehicle: Klucel (hydroxypropylcellulose) (HPC) 100 % of control | dose: 200.0 mg/kg/injection, schedule: Q01DX001 (ip), vehicle: Klucel (hydroxypropylcellulose) (HPC) 100 % of control | dose: 400.0 mg/kg/injection, schedule: Q01DX001 (ip), vehicle: Klucel (hydroxypropylcellulose) (HPC) 95 % of control

CC(C)(C#N)Nc1ccccc1
inactive: dose: 3.13 mg/kg/injection, schedule: Q01DX009 (ip), vehicle: saline with Tween-80 90 % of control and 100 % of control | dose: 6.25 mg/kg/injection, schedule: Q01DX009 (ip), vehicle: saline with Tween-80 90 % of control and 95 % of control | dose: 12.5 mg/kg/injection, schedule: Q01DX009 (ip), vehicle: saline with Tween-80 95 % of control

CCCC(F)C(=O)OCC (stereo not given)
inactive: [4] 90 % of control | [5] 100 % of control | [8] 104 % of control | [6] 109 % of control | [9] 118 % of control | [7] 100 % of control

CC1=CC(C(O)C(C)C)C(C)(Cc2ccc(C)cn2)NC1c1ccccc1 (stereo not given)
inactive: dose: 6.25 mg/kg/injection, schedule: Q04DX003 (ip), vehicle: saline with Tween-80 102 % of control | dose: 12.5 mg/kg/injection, schedule: Q04DX003 (ip), vehicle: saline with Tween-80 102 % of control | [10] 109 % of control

CCCCCCCCCCCCCCCCCOC(=O)CCCCCCCCCCCCCCCCC
inactive: [10] 105 % of control | [3] 105 % of control | [5] 100 % of control

C#CC[N+]1=CN(c2ccc(C)cc2)Cc2cc(C)ccc21
inactive: dose: 25.0 mg/kg/injection, schedule: Q04DX003 (ip), vehicle: Klucel (hydroxypropylcellulose) (HPC) 105 % of control | dose: 50.0 mg/kg/injection, schedule: Q01DX009 (ip), vehicle: Klucel (hydroxypropylcellulose) (HPC) 122 % of control | dose: 50.0 mg/kg/injection, schedule: Q04DX003 (ip), vehicle: Klucel (hydroxypropylcellulose) (HPC) 100 % of control | [11] 122 % of control | [12] 95 % of control and 100 % of control and 109 % of control | dose: 150.0 mg/kg/injection, schedule: Q04DX003 (ip), vehicle: Klucel (hydroxypropylcellulose) (HPC) 100 % of control and 110 % of control | dose: 225.0 mg/kg/injection, schedule: Q04DX003 (ip), vehicle: Klucel (hydroxypropylcellulose) (HPC) 110 % of control

Cn1c(-c2ccccc2)nc2ccccc2c1=O
inactive: [2] 90 % of control | [4] 97 % of control | [8] 101 % of control

O=C(c1cccnc1)C1Cc2ccccc2C1=O (stereo not given)
inactive: [4] 100 % of control | [5] 100 % of control | [8] 100 % of control | [6] 100 % of control | [9] 91 % of control | [7] 104 % of control

COC(=O)c1cc(=O)nc(N/N=C/c2ccc(C)cc2)s1
inactive: [13] 94 % of control | [14] 89 % of control | [15] 99 % of control

O=C(C1CC2CCC1C2)C1CC2CCC1C2 (stereo not given)
inactive: [1] 95 % of control | [12] 100 % of control | [16] 108 % of control | [17] 104 % of control

COc1cc2oc3ccccc3c(=O)c2cc1CSc1ccccc1N
inactive: [2] 123 % of control | [4] 88 % of control | [8] 90 % of control

Cc1c(N)c2ccccc2c(=O)n1C
inactive: [13] 92 % of control | [14] 97 % of control | [15] 106 % of control

O=S(=O)(Nc1ccc(NS(=O)(=O)c2ccccc2)nc1)c1ccccc1
inactive: [12] 100 % of control | [16] 104 % of control | [17] 100 % of control

COc1ccccc1NC(=O)CSC(N)=O
inactive: [11] 110 % of control | dose: 200.0 mg/kg/injection, schedule: Q01DX009 (ip), vehicle: Klucel (hydroxypropylcellulose) (HPC) 120 % of control | dose: 264.0 mg/kg/injection, schedule: Q01DX009 (ip), vehicle: Klucel (hydroxypropylcellulose) (HPC) 113 % of control and 120 % of control

COc1ccc(C(C)=O)cc1OCc1ccccc1
inactive: dose: 50.0 mg/kg/injection, schedule: Q01DX009 (ip), vehicle: water 114 % of control | dose: 100.0 mg/kg/injection, schedule: Q01DX009 (ip), vehicle: water 109 % of control | dose: 100.0 mg/kg/injection, schedule: Q04DX003 (ip), vehicle: water 102 % of control | dose: 200.0 mg/kg/injection, schedule: Q01DX009 (ip), vehicle: water 119 % of control | dose: 200.0 mg/kg/injection, schedule: Q04DX003 (ip), vehicle: water 102 % of control | dose: 400.0 mg/kg/injection, schedule: Q01DX009 (ip), vehicle: water 111 % of control | dose: 400.0 mg/kg/injection, schedule: Q04DX003 (ip), vehicle: water 111 % of control
